Biological target: T1, glycine cleavage system (GCS), L protein with P, T and H proteins (Escherichia coli, UniProt P0A9P0)
T1 construct: gene lpdA; printed WP records may differ from the MG1655 alleles; with Glycine dehydrogenase (decarboxylating); Aminomethyltransferase; Glycine cleavage system H protein
T1 sequence (P0A9P0 2-474): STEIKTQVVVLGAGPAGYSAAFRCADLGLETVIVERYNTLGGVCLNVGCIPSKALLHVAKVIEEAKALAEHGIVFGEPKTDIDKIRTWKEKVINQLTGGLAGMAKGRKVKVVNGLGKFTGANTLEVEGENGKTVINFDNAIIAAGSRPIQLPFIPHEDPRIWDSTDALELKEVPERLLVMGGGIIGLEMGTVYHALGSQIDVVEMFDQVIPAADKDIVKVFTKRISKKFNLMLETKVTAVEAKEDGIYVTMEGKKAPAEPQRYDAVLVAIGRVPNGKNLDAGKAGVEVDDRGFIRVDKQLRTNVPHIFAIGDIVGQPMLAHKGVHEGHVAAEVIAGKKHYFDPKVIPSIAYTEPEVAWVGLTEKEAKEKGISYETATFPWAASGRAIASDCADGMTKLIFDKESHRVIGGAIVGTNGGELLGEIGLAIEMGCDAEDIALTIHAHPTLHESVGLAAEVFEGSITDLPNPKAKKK
T1 sequence (P0A6T9 2-129 partner): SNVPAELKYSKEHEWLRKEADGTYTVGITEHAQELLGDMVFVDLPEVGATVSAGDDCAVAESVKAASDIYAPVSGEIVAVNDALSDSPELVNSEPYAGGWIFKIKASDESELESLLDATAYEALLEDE
Test: glycine-dependent NADH formation, spectrophotometric, reconstituted GCS
Type: biochemical
Conditions: 5 mM NAD+, 50 mM glycine, 0.5 mM THF, 20 mM DTT, 25 uM PLP, 50 mM Tris-HCl pH 7.5, 37 C; overall glycine cleavage

SMILES: NC(=O)c1ccc[n+]([C@@H]2O[C@H](COP(=O)(O)OP(=O)(O)OC[C@H]3O[C@@H](n4cnc5c(N)ncnc54)[C@H](O)[C@@H]3O)[C@@H](O)[C@H]2O)c1 [NAD+]
- glycine-dependent NADH formation, spectrophotometric, reconstituted GCS: measuring glycine‐dependent NADH formation

Reference: article PMC8727733, “Improvement of glycine biosynthesis from one‐carbon compounds and ammonia catalyzed by the glycine cleavage system in vitro” (Engineering in Life Sciences, 2021)
